{"source": "ChEMBL document CHEMBL1201862", "about": "“PubChem BioAssay data set” (2004)", "key": {"[1]": {"assay": "HIV-1 Vif–A3G interaction blockers – biochemical, TR-FRET, GST-Vif 1-94, biotin-A3G peptide, dose response retest, primary screen (AID 1117319);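 also: TR-FRET signal of purified GST-Vif binding a biotinylated A3G peptide; inhibitors lower the FRET signal by blocking Vif and A3G binding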", "assay_type": "functional"}, "[2]": {"target": "T1, Protein Tat (Human immunodeficiency virus type 1 group M subtype B (isolate HXB2)(HIV-1), UniProt P04608)", "T1 sequence (P04608 whole entry)": "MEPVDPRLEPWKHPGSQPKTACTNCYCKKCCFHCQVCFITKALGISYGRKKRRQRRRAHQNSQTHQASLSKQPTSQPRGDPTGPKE", "assay_type": "functional"}, "[3]": {"target": "FAD-linked sulfhydryl oxidase ALR (Homo sapiens, UniProt P55789)", "sequence (P55789 whole entry)": "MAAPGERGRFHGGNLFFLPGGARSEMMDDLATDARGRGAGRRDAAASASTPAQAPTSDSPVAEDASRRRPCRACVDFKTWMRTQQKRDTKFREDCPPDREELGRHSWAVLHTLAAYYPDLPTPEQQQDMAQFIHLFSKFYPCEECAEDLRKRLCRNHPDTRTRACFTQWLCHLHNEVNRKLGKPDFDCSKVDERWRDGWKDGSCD", "assay": "ALR-catalysed DTT oxidation blockers – biochemical, H2O2 detection, luminescence, cherry-pick, dose response (AID 493248)"}, "[4]": {"target": "T2, Replicative DNA helicase DnaB (Mycobacterium tuberculosis, UniProt P9WMR3)", "T2 sequence (P9WMR3 whole entry)": "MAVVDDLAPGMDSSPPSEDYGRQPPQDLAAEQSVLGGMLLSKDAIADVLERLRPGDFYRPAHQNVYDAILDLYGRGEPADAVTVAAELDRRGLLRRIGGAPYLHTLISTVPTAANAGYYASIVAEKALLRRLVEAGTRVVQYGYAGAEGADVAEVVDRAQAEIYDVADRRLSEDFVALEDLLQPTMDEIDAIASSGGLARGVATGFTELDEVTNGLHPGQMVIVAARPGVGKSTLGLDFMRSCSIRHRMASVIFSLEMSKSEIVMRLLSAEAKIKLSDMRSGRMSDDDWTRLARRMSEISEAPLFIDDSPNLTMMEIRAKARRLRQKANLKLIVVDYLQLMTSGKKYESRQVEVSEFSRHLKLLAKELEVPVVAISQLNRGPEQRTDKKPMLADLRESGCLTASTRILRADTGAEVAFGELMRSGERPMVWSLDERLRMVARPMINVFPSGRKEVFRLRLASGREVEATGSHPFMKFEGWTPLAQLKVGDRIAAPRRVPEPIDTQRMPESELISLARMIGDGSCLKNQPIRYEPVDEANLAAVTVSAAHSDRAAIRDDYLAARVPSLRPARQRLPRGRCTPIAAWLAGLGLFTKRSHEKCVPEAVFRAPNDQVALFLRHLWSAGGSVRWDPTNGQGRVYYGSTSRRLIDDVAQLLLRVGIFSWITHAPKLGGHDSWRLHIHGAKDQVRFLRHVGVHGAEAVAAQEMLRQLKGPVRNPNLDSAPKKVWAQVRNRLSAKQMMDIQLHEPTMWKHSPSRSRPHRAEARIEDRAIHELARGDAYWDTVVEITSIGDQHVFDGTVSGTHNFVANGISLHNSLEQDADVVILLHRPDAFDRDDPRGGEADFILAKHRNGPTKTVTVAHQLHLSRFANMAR", "assay": "DnaB intein splicing inhibitors, dose response, biochemical, cell-free fluorescence (AID 449749)", "assay_type": "functional"}, "[5]": {"assay": "viability of PTEN-deleted HCT116 cells – cell-based, HCT116 PTEN knockout, dose response (AID 1047);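 also: cells exposed to compound for 60 hours before readout; potency for loss of cell viability measured by luminescence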", "assay_type": "functional"}, "[6]": {"target": "T3, Polyadenylate-binding protein 1 (Homo sapiens, UniProt P11940)", "T3 sequence (P11940 whole entry, the tested form may be a part)": "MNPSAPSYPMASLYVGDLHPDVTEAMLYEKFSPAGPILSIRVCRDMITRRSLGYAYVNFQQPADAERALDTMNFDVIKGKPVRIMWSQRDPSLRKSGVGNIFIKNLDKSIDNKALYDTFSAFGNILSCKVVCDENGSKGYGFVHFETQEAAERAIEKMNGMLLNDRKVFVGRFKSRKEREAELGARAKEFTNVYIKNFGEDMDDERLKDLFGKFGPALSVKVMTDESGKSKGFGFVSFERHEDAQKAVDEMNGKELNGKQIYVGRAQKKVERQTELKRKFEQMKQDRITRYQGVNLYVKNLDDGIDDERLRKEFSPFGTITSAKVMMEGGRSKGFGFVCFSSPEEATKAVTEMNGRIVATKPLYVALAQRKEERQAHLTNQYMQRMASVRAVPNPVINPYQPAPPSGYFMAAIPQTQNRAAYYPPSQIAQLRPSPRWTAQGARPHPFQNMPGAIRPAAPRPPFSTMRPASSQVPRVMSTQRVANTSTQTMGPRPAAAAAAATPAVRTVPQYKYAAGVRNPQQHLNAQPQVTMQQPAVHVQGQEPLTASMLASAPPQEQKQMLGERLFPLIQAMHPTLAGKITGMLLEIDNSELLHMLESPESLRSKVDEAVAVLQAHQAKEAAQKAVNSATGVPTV", "assay": "MLLE domain peptide-binding blockers, IC50 – biochemical, fluorescence polarization, FITC-PAM2 peptide, dose response (AID 602259)", "assay_type": "functional", "details": "read-out: IC50_Mean"}, "[7]": {"target": "T3, Polyadenylate-binding protein 1", "assay": "MLLE binding blockers, Cy5 peptide tracer – biochemical, fluorescence polarization, Cy5-PAM2 peptide, secondary, miRNA deadenylation inhibitor project, dose response (AID 602260)", "assay_type": "functional", "details": "read-out: IC50_Mean"}, "[8]": {"target": "T4, Protein RecA (Mycobacterium tuberculosis, UniProt P9WHJ3)", "T4 sequence (P9WHJ3 whole entry)": "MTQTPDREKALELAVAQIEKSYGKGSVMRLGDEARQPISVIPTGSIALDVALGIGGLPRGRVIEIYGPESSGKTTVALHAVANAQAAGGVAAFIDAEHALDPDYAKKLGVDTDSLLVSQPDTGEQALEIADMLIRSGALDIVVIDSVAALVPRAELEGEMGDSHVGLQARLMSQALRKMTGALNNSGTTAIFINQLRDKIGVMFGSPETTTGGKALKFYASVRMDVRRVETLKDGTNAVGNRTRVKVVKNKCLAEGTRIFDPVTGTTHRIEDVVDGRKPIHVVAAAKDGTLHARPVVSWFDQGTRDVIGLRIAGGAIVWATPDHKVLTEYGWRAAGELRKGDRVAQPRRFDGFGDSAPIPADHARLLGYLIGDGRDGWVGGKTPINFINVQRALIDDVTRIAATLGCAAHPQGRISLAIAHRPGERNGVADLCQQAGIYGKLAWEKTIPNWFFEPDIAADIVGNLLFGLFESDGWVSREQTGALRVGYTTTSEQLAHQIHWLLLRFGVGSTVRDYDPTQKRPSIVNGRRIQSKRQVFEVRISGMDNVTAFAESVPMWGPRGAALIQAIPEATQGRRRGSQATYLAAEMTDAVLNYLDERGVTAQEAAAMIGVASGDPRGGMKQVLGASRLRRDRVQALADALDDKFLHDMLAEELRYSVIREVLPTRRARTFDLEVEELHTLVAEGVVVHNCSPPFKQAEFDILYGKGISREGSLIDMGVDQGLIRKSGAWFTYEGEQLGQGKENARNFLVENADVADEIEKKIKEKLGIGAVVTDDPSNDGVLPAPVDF", "assay": "Fluorescence Cell-Free Homogeneous Dose Retest to Identify Inhibitors of RecA-Intein Splicing Activity. [Related pubchem assays (depositor defined):AID2097, AID2223, AID489010, AID492950]", "assay_type": "functional"}, "[9]": {"assay": "viability of HCT116 lacking mutant beta-catenin – cell-based, human colon tumor, dose response (AID 1045);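 also: cells exposed to compound for 60 hours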", "assay_type": "functional"}, "[10]": {"assay": "viability loss in THP-1 monocytes – THP-1 cells, cytotoxicity control for Vif-APOBEC3G degradation inhibitor project, dose response (AID 1117359)", "assay_type": "functional", "details": "THP-1"}, "[11]": {"target": "T5, Lytic switch protein BZLF1 (Epstein-Barr virus (strain B95-8) (HHV-4) (Human herpesvirus 4), UniProt P03206)", "T5 sequence (P03206 whole entry)": "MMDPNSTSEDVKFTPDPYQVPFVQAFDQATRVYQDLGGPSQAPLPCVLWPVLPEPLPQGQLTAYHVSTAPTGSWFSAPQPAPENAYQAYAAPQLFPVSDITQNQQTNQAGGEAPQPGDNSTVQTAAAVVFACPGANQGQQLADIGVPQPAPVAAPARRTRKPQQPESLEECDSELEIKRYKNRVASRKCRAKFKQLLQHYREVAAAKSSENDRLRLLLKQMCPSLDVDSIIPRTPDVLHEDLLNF", "assay": "inhibition of BZLF1 ZTA DNA binding – biochemical, fluorescence polarization, Epstein-Barr virus, 1536-well, counter-screen for EBNA-1 inhibitor project, dose response (AID 2377);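 also: fluorescence polarization of Cy5-labelled ZRE DNA probe bound by purified Zta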", "design": "species or system human gammaherpesvirus 4"}, "[12]": {"target": "T6, Epstein-Barr nuclear antigen 1 (Epstein-Barr virus (strain B95-8) (HHV-4) (Human herpesvirus 4), UniProt P03211)", "T6 sequence (P03211 whole entry)": "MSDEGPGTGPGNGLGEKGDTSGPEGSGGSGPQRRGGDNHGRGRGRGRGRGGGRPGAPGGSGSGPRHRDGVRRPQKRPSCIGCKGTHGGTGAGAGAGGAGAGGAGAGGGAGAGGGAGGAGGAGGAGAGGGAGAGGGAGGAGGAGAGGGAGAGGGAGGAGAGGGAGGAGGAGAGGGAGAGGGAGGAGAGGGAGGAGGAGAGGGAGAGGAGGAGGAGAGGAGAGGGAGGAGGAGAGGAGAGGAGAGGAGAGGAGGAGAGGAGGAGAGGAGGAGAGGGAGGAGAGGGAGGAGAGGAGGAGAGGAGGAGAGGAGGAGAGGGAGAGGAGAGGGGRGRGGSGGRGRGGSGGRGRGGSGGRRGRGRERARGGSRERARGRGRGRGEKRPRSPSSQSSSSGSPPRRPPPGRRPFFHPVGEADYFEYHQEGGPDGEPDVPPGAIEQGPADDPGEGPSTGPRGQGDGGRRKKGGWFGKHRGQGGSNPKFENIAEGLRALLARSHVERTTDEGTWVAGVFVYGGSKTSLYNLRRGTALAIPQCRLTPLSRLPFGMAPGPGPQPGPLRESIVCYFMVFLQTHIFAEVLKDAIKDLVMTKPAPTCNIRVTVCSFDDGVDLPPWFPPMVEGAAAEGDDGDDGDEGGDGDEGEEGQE", "assay": "inhibition of EBV nuclear antigen 1 DNA binding – biochemical, fluorescence polarization, 1536-well, dose response (AID 2381)", "design": "species or system human gammaherpesvirus 4"}, "[13]": {"assay": "blockade of melanocortin 4 receptor signaling – cell-based, plate reader, cherry pick, counter-screen for LGR2 antagonist project, dose response (AID 743444);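 also: transfected HEK 293 cells stimulated with alpha-MSH peptide; potency of inhibitors of the alpha-MSH evoked signal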", "assay_type": "functional"}, "[14]": {"assay": "viability loss in HEK293 cells – cell-based, plate reader, cherry-picked samples, cytotoxicity control, dose response (AID 743446)", "assay_type": "functional"}, "[15]": {"assay": "blockers of bursicon-stimulated LGR2 cAMP reporter – cell-based, HEK293, CRE-luciferase reporter, cherry pick, set 2, dose response (AID 743343);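 also: transfected cells were stimulated with diluted bursicon conditioned medium after compound addition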", "assay_type": "functional"}, "[16]": {"target": "T7, Carboxy-terminal domain RNA polymerase II polypeptide A small phosphatase 1 (Homo sapiens, UniProt Q9GZU7)", "T7 sequence (Q9GZU7 whole entry)": "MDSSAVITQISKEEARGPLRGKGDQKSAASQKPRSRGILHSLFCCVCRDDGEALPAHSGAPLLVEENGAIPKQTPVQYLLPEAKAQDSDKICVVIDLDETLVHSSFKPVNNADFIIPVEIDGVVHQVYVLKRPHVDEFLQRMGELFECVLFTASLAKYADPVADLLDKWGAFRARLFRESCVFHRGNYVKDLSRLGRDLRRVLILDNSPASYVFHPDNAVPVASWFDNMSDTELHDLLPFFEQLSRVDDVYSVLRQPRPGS", "assay": "CTDSP1 inhibitors, concentration-response, biochemical, absorbance readout, ultra-high-throughput screen actives (AID 540297)", "assay_type": "functional"}, "[17]": {"target": "T8, Estrogen receptor beta (Homo sapiens, UniProt Q92731)", "T8 sequence (Q92731 whole entry)": "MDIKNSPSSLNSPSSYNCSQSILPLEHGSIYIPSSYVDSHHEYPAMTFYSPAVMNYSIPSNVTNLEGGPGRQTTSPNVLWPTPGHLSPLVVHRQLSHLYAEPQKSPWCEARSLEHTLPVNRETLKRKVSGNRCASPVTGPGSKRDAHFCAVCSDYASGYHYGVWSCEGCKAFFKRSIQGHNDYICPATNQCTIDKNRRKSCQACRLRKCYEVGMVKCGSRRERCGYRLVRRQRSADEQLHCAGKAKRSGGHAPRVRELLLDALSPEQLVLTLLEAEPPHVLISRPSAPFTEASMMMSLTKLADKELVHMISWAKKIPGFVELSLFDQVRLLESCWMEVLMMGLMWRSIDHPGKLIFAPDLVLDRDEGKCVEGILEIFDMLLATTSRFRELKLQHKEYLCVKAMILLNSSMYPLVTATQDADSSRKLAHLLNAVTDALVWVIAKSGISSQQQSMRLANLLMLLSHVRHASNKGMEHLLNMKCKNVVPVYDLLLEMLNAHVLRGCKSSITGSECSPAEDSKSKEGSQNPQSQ", "assay": "blockers of SRC-3 recruitment to ERβ – biochemical, ELISA, streptavidin-HRP readout, orthogonal assay, confirmation (AID 1060)"}, "[18]": {"target": "T8, Estrogen receptor beta"}, "[19]": {"target": "Kallikrein-7 (Homo sapiens, UniProt P49862)", "sequence (P49862 whole entry)": "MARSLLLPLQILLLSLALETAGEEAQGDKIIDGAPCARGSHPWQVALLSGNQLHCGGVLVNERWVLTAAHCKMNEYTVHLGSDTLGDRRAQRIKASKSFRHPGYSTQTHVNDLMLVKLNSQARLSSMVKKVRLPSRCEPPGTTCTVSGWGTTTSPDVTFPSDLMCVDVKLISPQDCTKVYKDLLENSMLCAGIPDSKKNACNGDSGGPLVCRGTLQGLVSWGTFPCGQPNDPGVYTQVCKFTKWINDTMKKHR", "assay": "Fluorescence Intensity-based biochemical primary high throughput dose response assay to identify activators of kallikrein-7 (K7) zymogen."}}, "note": "Activity calls are given as the source filed them.", "data": [{"molecule": "COc1ccc(C(=O)OCC(=O)c2c(N)n(C)c(=O)n(C)c2=O)cc1OC", "values": [{"measurement": "IC50", "setting": "[1]", "value": "> 100 µM (active)"}]}, {"molecule": "Cc1ccc(-n2c(C)cc(C(=O)OCC(=O)N(CC(C)C)C3CCS(=O)(=O)C3)c2C)cc1", "note": "(configuration not stated)", "values": [{"measurement": "IC50", "setting": "[2]", "value": "> 100 µM (active)"}, {"measurement": "IC50", "setting": "[1]", "value": "> 100 µM (active)"}]}, {"molecule": "COc1ccc(S(=O)(=O)Cc2ccc(C(=O)N3CCN(c4ccccc4)CC3)o2)cc1", "values": [{"measurement": "AC50", "setting": "[3]", "value": "19.1 µM (active)"}, {"measurement": "IC50", "setting": "[2]", "value": "> 100 µM (active)"}, {"measurement": "IC50", "setting": "[1]", "value": "> 100 µM (active)"}]}, {"molecule": "O=[N+]([O-])c1c(NCCCO)cc(SCc2ccco2)c2nonc12", "values": [{"measurement": "AC50", "setting": "[4]", "value": "57.7 µM (active)"}, {"measurement": "EC50", "setting": "[5]", "value": "27.1 µM (active)"}, {"measurement": "IC50", "setting": "[6]", "value": "> 66 µM (inactive)"}, {"measurement": "IC50", "setting": "[7]", "value": "> 66 µM (inactive)"}, {"measurement": "EC50", "setting": "[8]", "value": "5.64 µM (active)"}, {"measurement": "EC50", "setting": "[9]", "value": "18 µM (active)"}, {"measurement": "CC50", "setting": "[10]", "value": "> 40 µM (active)"}]}, {"molecule": "CCc1nnc(NC(=O)CSc2ccc(-c3nc4ccccc4[nH]3)cn2)s1", "values": [{"measurement": "IC50", "setting": "[11]", "value": "> 111 µM (not active)"}, {"measurement": "IC50", "setting": "[12]", "value": "17.1 µM (not active)"}]}, {"molecule": "Cc1ccc(-c2nc(-c3ccccn3)no2)cc1[N+](=O)[O-]", "values": [{"measurement": "AC50", "setting": "[13]", "value": "14.9 µM (active)"}, {"measurement": "AC50", "setting": "[14]", "value": "> 52 µM (inactive)"}, {"measurement": "AC50", "setting": "[15]", "value": "4.31 µM (active)"}]}, {"molecule": "Sc1nnc(-c2cc(-c3ccco3)[nH]n2)n1-c1ccccc1Cl", "values": [{"measurement": "IC50", "setting": "[16]", "value": "5.55 µM (active)"}, {"measurement": "IC50", "setting": "[17]", "value": "> 109 µM (not active)"}, {"measurement": "IC50", "setting": "[18]", "value": "> 50 µM (not active)"}]}, {"molecule": "CCOC(=O)N1CCN(C(=O)c2ccc3nc4ccsc4c(=O)n3c2)CC1", "values": [{"measurement": "EC50", "setting": "[19]", "value": "10.6 µM (inactive)"}]}]}
